Reference: patent US20260209214A1, “LSD1 MODULATORS” (RECURSION PHARMACEUTICALS, INC., priority 2022, published 2026)

molecular target: Recombinant human LSD1 (Homo sapiens, UniProt O60341); assay: LSD1 inhibition assay (HTRF LSD1 Histone H3K4 mono-demethylation assay, me1->me0); format: biochemical; conditions: 20 nM recombinant human LSD1, 95 nM H3K4(me1) biotinylated peptide, 15 min preincubation, 60 min at 25° C., read-out: LSD1 inhibition IC50 (nM range)
How it was run: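 HTRF demethylation (me1->me0) read-out: streptavidin-XL665 and anti-H3K4me0 cryptate added after reaction, ratio measured after 90 min dark. Reaction: 95 nM H3K4me1 biotin-peptide, 20 nM LSD1 (15-min compound pre-incubation), 60 min, 25 °C, buffer pH 8.5 plus FAD and DTT; 4-parameter logistic IC50.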

IC50 [nM] | Structure (SMILES)
> 1000 | CC1(N)CCCN(Cc2cccc(-c3ccc(C#N)c(F)c3)c2Cl)C1 (stereo not shown) [Example 286, 3'-[(3-amino-3-methylpiperidin-1-yl)methyl]-2'-chloro-3-fluoro-[1,1'-biphenyl]-4-carbonitrile]
> 1000 | N#Cc1ccc(-c2cccc(CN3CC4CC4(N)C3)c2Cl)cc1F (stereo not shown) [Example 287, 3'-({1-amino-3-azabicyclo[3.1.0]hexan-3-yl}methyl)-2'-chloro-3-fluoro-[1,1'-biphenyl]-4-carbonitrile]
100 to 1000 | CN1CCC12CCN(Cc1c(F)ccc(-c3ccc(C#N)c(F)c3)c1Cl)C2 (stereo not shown) [Example 289, 2'-chloro-3,4'-difluoro-3'-({1-methyl-1,6-diazaspiro[3.4]octan-6-yl}methyl)-[1,1'-biphenyl]-4-carbonitrile]
> 1000 | CN1CCC12CCN(Cc1c(F)ccc(-c3ccc(C#N)c(F)c3)c1F)C2 (stereo not shown) [Example 290, 2', 3,4'-trifluoro-3'-({1-methyl-1,6-diazaspiro[3.4]octan-6-yl}methyl)-[1,1'-biphenyl]-4-carbonitrile]
> 1000 | N#Cc1ccc(-c2cccc(CN3CC4(CCN4)C3)c2Cl)cc1F [Example 292, 2'-chloro-3'-({1,6-diazaspiro[3.3]heptan-6-yl}methyl)-3-fluoro-[1,1'-biphenyl]-4-carbonitrile]
> 1000 | CC(C)N(C)c1ccc(CN2CCN(C)CC2)cc1-c1ccc(C#N)c(F)c1 [Example 295, 3-fluoro-2'-[methyl(propan-2-yl)amino]-5'-[(4-methylpiperazin-1-yl)methyl]-[1,1'-biphenyl]-4-carbonitrile]
> 1000 | CN1CCN(Cc2ccc(N3CCC3)c(-c3ccc(C#N)c(F)c3)c2)CC1 [Example 296, 2'-(azetidin-1-yl)-3-fluoro-5'-[(4-methylpiperazin-1-yl)methyl]-[1,1'-biphenyl]-4-carbonitrile]
100 to 1000 | Cc1cc(CN2C[C@@H]3C[C@H]2CN3C(C)C)c(Cl)c(-c2ccc(C#N)c(F)c2)c1 [Example 297, 2'-chloro-3-fluoro-5'-methyl-3'-{[(1S,4S)-5-(propan-2-yl)-2,5-diazabicyclo[2.2.1]heptan-2-yl]methyl}-[1,1'-biphenyl]-4-carbonitrile]
100 to 1000 | Cc1cc(CNCC2(C)CCN(C)C2)c(Cl)c(-c2ccc(C#N)c(F)c2)c1 (stereo not shown) [Example 298, 2'-chloro-3'-({[(1,3-dimethylpyrrolidin-3-yl)methyl]amino}methyl)-3-fluoro-5'-methyl-[1,1'-biphenyl]-4-carbonitrile]
25 to 100 | N#Cc1ccc(-c2cc(CN3C[C@]4(N)CC[C@H]3C4)ccc2C2CC2)cc1F [Example 308, 5'-{[(1S,4S)-4-amino-2-azabicyclo[2.2.1]heptan-2-yl]methyl}-2'-cyclopropyl-3-fluoro-[1,1'-biphenyl]-4-carbonitrile]
> 1000 | C[C@@H]1[C@@H](N)CCCN1Cc1cccc(-c2ccc(C#N)c(F)c2)c1Cl [Example 329, 3'-{[(2R,3S)-3-amino-2-methylpiperidin-1-yl]methyl}-2'-chloro-3-fluoro-[1,1'-biphenyl]-4-carbonitrile]
> 1000 | C[C@@H]1CC[C@H](N)CN1Cc1cccc(-c2ccc(C#N)c(F)c2)c1Cl [Example 330, 3'-{[(2R,5S)-5-amino-2-methylpiperidin-1-yl]methyl}-2'-chloro-3-fluoro-[1,1'-biphenyl]-4-carbonitrile]
100 to 1000 | N#Cc1ccc(-c2cccc(CN3CCCC(N)C3)c2Cl)cc1F (stereo not shown) [Example 332, 3'-[(3-aminopiperidin-1-yl)methyl]-2'-chloro-3-fluoro-[1,1'-biphenyl]-4-carbonitrile]

Second part, the molecule before the results:

Structure (SMILES) | IC50 [nM]
N#Cc1ccc(-c2cccc(CN3CC4CNC(C4)C3)c2Cl)cc1F (stereo not shown) [Example 284, 2'-chloro-3'-({3,6-diazabicyclo[3.2.1]octan-3-yl}methyl)-3-fluoro-[1,1'-biphenyl]-4-carbonitrile] | 100 to 1000
N#Cc1ccc(-c2cccc(CN3C[C@H](N)C[C@H](F)C3)c2Cl)cc1F [Example 285, 3'-{[(3R,5S)-3-amino-5-fluoropiperidin-1-yl]methyl}-2'-chloro-3-fluoro-[1,1'-biphenyl]-4-carbonitrile] | 100 to 1000
N#Cc1ccc(-c2cccc(CN3CC4(CCNCC4)C3)c2Cl)cc1F [Example 288, 2'-chloro-3'-({2,7-diazaspiro[3.5]nonan-2-yl}methyl)-3-fluoro-[1,1'-biphenyl]-4-carbonitrile] | 100 to 1000
N#Cc1ccc(-c2ccc(F)c(CN3C[C@@H]4[C@H](N)[C@@H]4C3)c2Cl)cc1F [Example 291, 3'-{[(1R,5S,6S)-6-amino-3-azabicyclo[3.1.0]hexan-3-yl]methyl}-2'-chloro-3,4'-difluoro-[1,1'-biphenyl]-4-carbonitrile] | 100 to 1000
Cc1cc(CN2C[C@H]3C[C@@H]2CN3)c(C)c(-c2ccc(C#N)c(F)c2)c1 [Example 293, 3'-{[(1R,4R)-2,5-diazabicyclo[2.2.1]heptan-2-yl]methyl}-3-fluoro-2',5'-dimethyl-[1,1'-biphenyl]-4-carbonitrile] | 100 to 1000
N#Cc1ccc(-c2cc(CN3C[C@]4(N)CC[C@H]3C4)cc(N3CCCC3)c2)cc1F [Example 294, 4-[3-[[(1S,4S)-4-amino-2-azabicyclo[2.2.1]heptan-2-yl]methyl]-5-pyrrolidin-1-yl-phenyl]-2-fluoro-benzonitrile] | 100 to 1000
Cc1cc(CN2C[C@@H]3C[C@H]2CN3)c(Cl)c(-c2ccc(C#N)c(F)c2)c1 [Example 299, 2′-chloro-3'-{[(1S,4S)-2,5-diazabicyclo[2.2.1]heptan-2-yl]methyl}-3-fluoro-5'-methyl-[1,1'-biphenyl]-4-carbonitrile] | 25 to 100
C[C@]1(N)CCN(Cc2cccc(-c3ccc(C#N)c(F)c3)c2-c2ccns2)C1 [Example 302, 3'-{[(3S)-3-amino-3-methylpyrrolidin-1-yl]methyl}-3-fluoro-2'-(1,2-thiazol-5-yl)-[1,1'-biphenyl]-4-carbonitrile] | < 10
N#Cc1ccc(-c2cccc(CN3[C@@H]4CC[C@H]3C[C@H](N)C4)c2C2CC2)cc1F [Example 321, 3'-{[(1R,3S,5S)-3-amino-8-azabicyclo[3.2.1]octan-8-yl]methyl}-2'-cyclopropyl-3-fluoro-[1,1'-biphenyl]-4-carbonitrile] | 10 to 25
N#Cc1ccc(-c2cccc(CN3C[C@H]4C[C@@H]3CCN4)c2C2CC2)cc1F [Example 322, 2'-cyclopropyl-3'-{[(1R,5S)-2,6-diazabicyclo[3.2.1]octan-6-yl]methyl}-3-fluoro-[1,1'-biphenyl]-4-carbonitrile] | 25 to 100
N#Cc1ccc(-c2cccc(CN3CC4CC(C3)N4)c2C2CC2)cc1F [Example 323, 4-[2-cyclopropyl-3-(3,6-diazabicyclo[3.1.1]heptan-3-ylmethyl)phenyl]-2-fluoro-benzonitrile; (2R,3R)-2,3-dihydroxybutanedioic acid] | 10 to 25
N#Cc1ccc(-c2cccc(CN3C[C@@H]4CNC[C@H]4C3)c2-c2cncs2)cc1F [Example 324, 3'-{[(3aS,6aS)-octahydropyrrolo[3,4-c]pyrrol-2-yl]methyl}-3-fluoro-2'-(1,3-thiazol-5-yl)-[1,1'-biphenyl]-4-carbonitrile] | 10 to 25
N#Cc1ccc(-c2cccc(CN3CCC4(CCNC4)C3)c2-c2cnco2)cc1 (stereo not shown) [Example 325, 3'-({2,7-diazaspiro[4.4]nonan-2-yl}methyl)-2'-(1,3-oxazol-5-yl)-[1,1'-biphenyl]-4-carbonitrile] | 10 to 25
N#Cc1ccc(-c2cccc(CN3C[C@H](N)C[C@H](C(F)(F)F)C3)c2Cl)cc1F [Example 326, 3'-{[(3R,5S)-3-amino-5-(trifluoromethyl)piperidin-1-yl]methyl}-2'-chloro-3-fluoro-[1,1'-biphenyl]-4-carbonitrile] | > 1000
N#Cc1ccc(-c2cccc(CN3CCCC34CCCNC4)c2Cl)cc1F (stereo not shown) [Example 327, 2'-chloro-3'-({1,7-diazaspiro[4.5]decan-1-yl}methyl)-3-fluoro-[1,1'-biphenyl]-4-carbonitrile] | > 1000
N#Cc1ccc(-c2cccc(CN3CC4(N)CCC3CC4)c2Cl)cc1F [Example 328, 3'-({4-amino-2-azabicyclo[2.2.2]octan-2-yl}methyl)-2'-chloro-3-fluoro-[1,1'-biphenyl]-4-carbonitrile] | 100 to 1000
N#Cc1ccc(-c2cccc(CN3CC4(CCCNC4)C3)c2-c2cnco2)cc1F [Example 333, 3'-({2,6-diazaspiro[3.5]nonan-2-yl}methyl)-3-fluoro-2'-(1,3-oxazol-5-yl)-[1,1'-biphenyl]-4-carbonitrile] | 10 to 25
N#Cc1ccc(-c2ccc(F)c(CN3C[C@]4(N)CC[C@H]3C4)c2-c2cnco2)cc1F [Example 334, 3'-{[(1S,4S)-4-amino-2-azabicyclo[2.2.1]heptan-2-yl]methyl}-3,4'-difluoro-2'-(1,3-oxazol-5-yl)-[1,1'-biphenyl]-4-carbonitrile] | 10 to 25
N#Cc1ccc(-c2cccc(CN3C[C@]4(N)CC[C@H]3C4)c2-c2cnco2)cc1F [Example 335, 3'-{[(1S,4S)-4-amino-2-azabicyclo[2.2.1]heptan-2-yl]methyl}-3-fluoro-2'-(1,3-oxazol-5-yl)-[1,1'-biphenyl]-4-carbonitrile] | < 10
CNC1CCN(Cc2cccc(-c3ccc(C#N)c(F)c3)c2-c2cnco2)C1 (stereo not shown) [Example 336, 3-fluoro-3'-{[3-(methylamino)pyrrolidin-1-yl]methyl}-2'-(1,3-oxazol-5-yl)-[1,1'-biphenyl]-4-carbonitrile] | 10 to 25
N#Cc1ccc(-c2cccc(CN3CC(F)(F)[C@@]34CCNC4)c2Cl)cc1F [Example 337, 2'-chloro-3'-{[(4S)-3,3-difluoro-1,6-diazaspiro[3.4]octan-1-yl]methyl}-3-fluoro-[1,1'-biphenyl]-4-carbonitrile] | > 1000
